US20240150289A1, “CRYSTALLINE CARBAZOLE DERIVATIVE” (Raziel Therapeutics Ltd., priority 2021, published 2024)
Entries after “also recorded” stand apart in the source; their conditions may differ.

How the values were obtained:
[1] = Long-term stability tests of crystalline Compound A Form 1 (storage, HPLC purity and XRPD); format: physicochemical; settings: for Purity: HPLC
Protocol: (§1) XRPD analysis was carried out on a PANalytical X'pert Pro with PIXcel detector (128 channels), scanning the samples between 3 and 35° 2θ. The material was gently ground (where required) to release any agglomerates and loaded onto a multi-well plate with Kapton or Mylar polymer film to support the sample. The multi-well plate was then placed into the diffractometer and analyzed using Cu K radiation (α1 λ=1.54060 Å; α2 λ=1.54443 Å; β=1.39225 Å; α1:α2 ratio=0.5) running in transmission mode (step size 0.0130° 2θ, step time 18.87s) using 40 kV/40 mA generator settings. Data were visualized and images generated using the HighScore Plus 4.7 desktop application (PANalytical, 2017). Crystalline Compound A Form 1 was not changed after storage at 25° C/60%RH for 36 months or storage at 40° C/75%RH for 6 months. Purity was determined by HPLC analysis.

[2] = Accelerated stability tests of crystalline Compound A Form 1 (storage, HPLC purity and XRPD); format: physicochemical; settings: 7 days; for Purity: HPLC
Protocol: as §1, with “room temperature” for “25° C/60%RH”, “7 days, storage at 40° C./75% RH for 7 days,” for “36 months”, “80° C.” for “40° C/75%RH”, “7 days.” for “6 months.”

[3] = 25° C./60% RH (closed container), 3 months
[4] = 25° C./60% RH (closed container), 6 months
[5] = 25° C./60% RH (closed container), 12 months
[6] = 25° C./60% RH (closed container), 24 months
[7] = 25° C./60% RH (closed container), 36 months
[8] = 40° C./75% RH (closed container), 1 month
[9] = 40° C./75% RH (closed container), 3 months
[10] = 40° C./75% RH (closed container), 6 months

XRPD [1, 3]: Unchanged
Purity [1, 3]: 99.7%
XRPD [1, 4]: Unchanged
Purity [1, 4]: 99.7%
XRPD [1, 5]: Unchanged
Purity [1, 5]: 99.7%
XRPD [1, 6]: Unchanged
Purity [1, 6]: 99.7%
XRPD [1, 7]: not changed; also recorded: Unchanged
Purity [1, 7]: 99.7%
XRPD [1, 8]: Unchanged
Purity [1, 8]: 99.7%
XRPD [1, 9]: Unchanged
Purity [1, 9]: 99.7%
XRPD [1, 10]: not changed; also recorded: Unchanged
Purity [1, 10]: 99.8%
XRPD ([2]; 40° C./75% RH (open vial)): not changed; also recorded: Unchanged
Purity ([2]; 40° C./75% RH (open vial)): 99.93%
XRPD ([2]; 80° C. (closed vial)): not changed; also recorded: Unchanged
Purity ([2]; 80° C. (closed vial)): 99.93%
XRPD ([2]; Room Temperature (open vial)): not changed; also recorded: Unchanged
Purity ([2]; Room Temperature (open vial)): 99.93%
SMILES: C[N+](C)(C)CCCCCn1c2ccc(Br)cc2c2cc(Br)ccc21.[Cl-] [Compound A Form 1, 5-(3,6-dibromo-9H-carbazol-9-yl)-N,N,N-trimethylpentan-1-aminium chloride Form 1]
